# From article PMC6882492, “Synthesis and biological evaluation of novel thienopyrimidine derivatives as diacylglycerol acyltransferase 1 (DGAT-1) inhibitors” (Journal of Enzyme Inhibition and Medicinal Chemistry, 2019)
# Legend:
# [1] = tested on: plasma TAG level; assay: Oral lipid tolerance test (OLTT), dog; type: in vivo, Beagle dogs; details: dogs, 17a 1 mg/kg po, n = 2
# Experimental: Beagle dogs (9 months old, n = 2/group) were obtained from Woojung Bio Inc. (Republic of Korea) were fasted for 16 h and received heavy cream (2.7 mL/kg), glucose (1 g/kg), water (5.3 mL/kg), and acetaminophen (20 mg/kg p.o.) 1 h after compound administration. Blood samples were collected at –0.5, 0, 1, 2, and 4 h.
# To determine in vivo efficacy, we evaluated the activity of 17a against serum TAG level induced by the oral administration of corn oil (oral lipid tolerance test, OLTT; Figures 3 and 4), since intestinal targeted DGAT-1 inhibition results in a reduced serum TAG level. 17a was orally administered to ICR mice at 3 mg/kg or to dogs at 1 mg/kg before administration of corn oil.
# Figure 4. Effect of 17a in a canine oral lipid tolerance test (n = 2, *p < .05; ***p < .001). The dog was treated with 17a (po. 1 mg/kg) or 2 (po. 1 mg/kg) before oral administration of corn oil. Vehicle for 2: 0.5% methylcellulose/0.5% Tween80 in distilled water, vehicle for 17a: 0.5% Tween80 in distilled water.
# [2] = molecular target: CYP2C9 (Homo sapiens, UniProt P11712); assay: CYP inhibition assay CYP2C9; type: in vitro ADME; details: fluorescence detection method; read-out: CYPs enzyme inhibition, IC50, CYP2C9
# [3] = molecular target: T1, human recombinant DGAT1 enzyme expressed in insect cells (SF9 cells) (Homo sapiens, UniProt O75907); assay: DGAT-1 inhibition assay (IC50), SF9 microsomes; type: biochemical; details: SF9 insect cells expressing human DGAT-1
# T1 construct: made in house; host or cells: SF9 insect cells (microsomal membrane fraction)
# T1 sequence (O75907 1-488): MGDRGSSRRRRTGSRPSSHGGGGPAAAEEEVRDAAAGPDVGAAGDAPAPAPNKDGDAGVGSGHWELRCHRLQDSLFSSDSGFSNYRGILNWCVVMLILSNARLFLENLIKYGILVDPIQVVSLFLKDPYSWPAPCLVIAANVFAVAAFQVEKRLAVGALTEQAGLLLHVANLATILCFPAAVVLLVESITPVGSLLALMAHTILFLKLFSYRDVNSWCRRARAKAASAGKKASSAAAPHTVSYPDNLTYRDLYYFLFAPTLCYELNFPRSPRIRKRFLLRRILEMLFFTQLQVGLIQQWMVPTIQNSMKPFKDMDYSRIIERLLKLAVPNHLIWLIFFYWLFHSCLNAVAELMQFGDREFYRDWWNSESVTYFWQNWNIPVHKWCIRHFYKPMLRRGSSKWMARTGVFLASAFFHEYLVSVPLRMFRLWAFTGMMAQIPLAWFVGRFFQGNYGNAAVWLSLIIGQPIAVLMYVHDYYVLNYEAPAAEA
# Experimental: The activity of DGAT-1 inhibitors in vitro was evaluated by using a human recombinant DGAT1 enzyme expressed in insect cells (SF9 cells). SF9 cells were homogenised by washing them with DPBS (Dulbecco’s phosphate-buffered saline) and then suspending cell pellets with a tris buffer (250 mM sucrose; 10 mM Tris-HCl [pH 7.4]; proteinase inhibitor). The resulting mixture was centrifugally separated at 10,000 × g for 30 min to remove the cell debris remaining in the lower layer thereof, and was centrifugally separated at 100,000 × g for 60 min to obtain a microsomal membrane. Further, membrane fractions were resuspended by the tris buffer, and then stored at -80 °C.
# The activity of DGAT1 was measured according to the reported method. Specifically, 0.0001 – 10 μΜ (final concentration, FC) of the test compounds were cultured at room temperature (25 °C) for 15 min with a […] of SF9 microsomal protein solution and 100 mM of MgCl2 solution, and were then further cultured at room temperature (25 °C) for 30 min after the addition of 100 μΜ (FC in 12.5% EtOH) of 1,2-dioleyl-sn-glycerol and 30 μΜ (final conc.) of [14]C-oleyl coenzyme A. The reaction was completed by the addition of 300 μL of a mixed solution of 2-propanol/heptane (7:1), and radioactive triglyceride was separated from an organic solvent layer by using 200 μL of heptane and 200 μL of a 0.1 M carbonate buffer (pH 9.5). The amount of triglyceride was measured by liquid scintillography (Perkin Elmer, USA) after mixing with an organic solvent and an equivalent amount of scintillation solvent (MicroScint-O, Perkin Elmer, USA). The effects of inhibiting DGAT1 were calculated as percent in comparison with a control material.
# The activities of synthesised compounds were evaluated using SF9 insect cells expressing human DGAT-1[22]. A potent DGAT-1 inhibitor, LCQ-908 (2 or pradigastat) was used as a positive control. […] The calculated lowest energy conformation model of 14c provided that the distance between the terminal carboxylic acid and NH of urea was over 16 Å, which may result in reduced activity. […]
# [4] = In vitro microsomal stability, human; type: in vitro ADME; details: human liver microsomes, 5 μM, 60 min
# [5] = In vitro microsomal stability, rat; type: in vitro ADME; details: rat liver microsomes, 5 μM, 60 min
# Chain of CYP2C9 (P11712 whole entry): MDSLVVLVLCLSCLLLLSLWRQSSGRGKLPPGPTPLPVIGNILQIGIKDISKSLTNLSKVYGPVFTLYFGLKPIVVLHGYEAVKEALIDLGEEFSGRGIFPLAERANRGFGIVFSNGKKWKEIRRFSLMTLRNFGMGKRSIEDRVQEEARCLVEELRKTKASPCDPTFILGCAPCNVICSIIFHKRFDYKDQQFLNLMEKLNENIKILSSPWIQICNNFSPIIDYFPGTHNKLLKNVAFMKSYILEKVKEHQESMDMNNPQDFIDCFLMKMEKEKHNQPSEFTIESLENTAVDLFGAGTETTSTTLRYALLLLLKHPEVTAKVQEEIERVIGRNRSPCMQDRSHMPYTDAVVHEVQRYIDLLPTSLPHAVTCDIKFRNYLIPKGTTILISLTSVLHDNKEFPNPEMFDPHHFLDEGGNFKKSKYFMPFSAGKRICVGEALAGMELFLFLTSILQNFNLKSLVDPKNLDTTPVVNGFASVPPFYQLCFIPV
smiles,measurement,setting,value
"O=C([O-])C[C@H]1CC[C@@H](c2csc3c(-c4ccc(NC(=O)Nc5cccc(Cl)c5)cc4)ncnc32)CC1.[Na+] [Compound 17a, Sodium cis-2–(4–(4-(4-(3–(3-chlorophenyl)ureido)phenyl)thieno[3,2-d]pyrimidin-7-yl)cyclohexyl)acetate]",Reduction of TAG in OLTT,[1],significant reduction of TAG
same,IC50,[2],2900 nM
same,IC50,[3],74 nM
same,"Microsomal stability, remaining percent",[4],94%
same,"Microsomal stability, remaining percent",[5],87%
